Consider eight compounds from PubChem BioAssay (NCI).

Some test systems named below: BT-549 breast; SR leukemia; SF-268 CNS; HCT-15 colon; RXF 393 renal; ACHN renal; MDA-MB-435; MDA-MB-231 breast; NCI-H226 lung; UO-31 renal.
What all share (experiment): inhibition of tumour cell growth, NCI panel, 48 h

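Following 48 hours of exposure in 96-well plates, responses at five concentrations were used to interpolate endpoints linearly. GI50: concentration for 50% inhibition of growth. The concentration for full growth arrest is given as TGI.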 Some results are limits rather than exact numbers.

Turning to `COC(=O)[C@H]1[C@@H](O)[C@@]2(O)c3c(OC)cc(O[C@@H]4O[C@@H]([C@H](O)CO)CO[C@H]4OC)cc3O[C@@]2(c2ccc(OC)cc2)[C@@H]1c1ccccc1`, the GI50 in the assay with BT-549 breast is 0.00434 µM; with SR leukemia, 0.00341 µM; with SF-268 CNS, 0.00342 µM; in the assay with HCT-15 colon, 0.233 µM; in the assay with RXF 393 renal, 0.00944 µM; in the assay with ACHN renal, 0.0597 µM. In addition, the GI50 in the assay on MDA-MB-435 is 0.00358 µM; in the assay on MDA-MB-231 breast, 0.00386 µM; in the assay on NCI-H226 lung, 0.00813 µM; with UO-31 renal, 0.136 µM. The TGI in the assay with BT-549 breast was 0.0322 µM; with SR leukemia, 0.147 µM; in the assay on SF-268 CNS it was 0.0425 µM; with HCT-15 colon, more than 1 µM; with RXF 393 renal, 0.0436 µM; with ACHN renal it was 0.783 µM. Also, the TGI in the assay with MDA-MB-435 was 0.0143 µM; in the assay on MDA-MB-231 breast it was 0.0237 µM; with NCI-H226 lung, 0.078 µM; in the assay with UO-31 renal, 0.755 µM.

As to `Cc1nc2ccccn2c1NC(=O)NNC(=S)Nc1ccc(Br)cc1`, the GI50 with BT-549 breast was 42.8 µM; in the assay with SR leukemia it was 18.9 µM; with SF-268 CNS, 67.9 µM; in the assay with HCT-15 colon it was 28.8 µM; with RXF 393 renal it was 52.6 µM; in the assay with ACHN renal, 37.9 µM. Moreover, the GI50 in the assay on MDA-MB-435 is 29.3 µM; with MDA-MB-231 breast, 22.6 µM; with NCI-H226 lung it was 38.4 µM; with UO-31 renal, 82.5 µM. For the same compound, the TGI in the assay with BT-549 breast was more than 100 µM; in the assay with SR leukemia, 55.6 µM; with SF-268 CNS, more than 100 µM; in the assay on HCT-15 colon it was more than 100 µM; with RXF 393 renal it was more than 100 µM; in the assay on ACHN renal, more than 100 µM. Moreover, the TGI in the assay on MDA-MB-435 is 70.6 µM; with MDA-MB-231 breast, 59.1 µM; in the assay with NCI-H226 lung, more than 100 µM; in the assay with UO-31 renal, more than 100 µM.

For `CC1=C(C(=O)Nc2ccccc2C)C(c2ccc(C3C(C(=O)Nc4ccccc4C)=C(C)NC(C)=C3C(=O)Nc3ccccc3C)cc2)C(C(=O)Nc2ccccc2C)=C(C)N1`, the TGI was determined as 11.5 µM with BT-549 breast; 8.56 µM with SR leukemia; 7.18 µM in the assay with SF-268 CNS; 23.5 µM with HCT-15 colon; 17.6 µM in the assay with RXF 393 renal; 16 µM with ACHN renal. The TGI in the assay on MDA-MB-435 stood at 14.3 µM; in the assay on MDA-MB-231 breast it was 15.2 µM; with NCI-H226 lung it was 28.7 µM; in the assay with UO-31 renal, 26.7 µM.

On to `COc1cccc(Cn2c(-c3nonc3N)nc3ccccc32)c1`, for which the GI50 was 0.365 µM in the assay on BT-549 breast; 0.31 µM in the assay with SR leukemia; 0.844 µM with SF-268 CNS; 0.399 µM in the assay with HCT-15 colon; 0.244 µM in the assay on RXF 393 renal; 0.612 µM in the assay with ACHN renal. Also, the GI50 with MDA-MB-435 is 0.201 µM; in the assay with MDA-MB-231 breast, 0.879 µM; in the assay with NCI-H226 lung, 1.16 µM; with UO-31 renal it was 0.632 µM. Further, the TGI in the assay with BT-549 breast was 68.5 µM; with SR leukemia, more than 100 µM; with SF-268 CNS, more than 100 µM; in the assay on HCT-15 colon, more than 100 µM; in the assay on RXF 393 renal it was 0.675 µM; with ACHN renal, more than 100 µM. Besides, the TGI in the assay with MDA-MB-435 is 0.549 µM; with MDA-MB-231 breast, more than 100 µM; in the assay with NCI-H226 lung it was more than 22 µM; in the assay on UO-31 renal, more than 100 µM.

For `C/C1=C/C(=O)O[C@@H]2C[C@@H](CC[C@H](C)/C=C\C=C\CC1)O[C@@](O)([C@@H]1CSC(=O)N1CO)C2`, the GI50 with BT-549 breast is 0.0592 µM; in the assay on SR leukemia it was 0.154 µM; in the assay with SF-268 CNS, 0.0418 µM; in the assay with HCT-15 colon, 0.0689 µM; in the assay with RXF 393 renal, 0.0367 µM; in the assay on ACHN renal, 0.0403 µM. Besides, the GI50 in the assay on MDA-MB-435 was 0.29 µM; in the assay with MDA-MB-231 breast it was 0.0634 µM; in the assay with NCI-H226 lung, 0.104 µM; in the assay with UO-31 renal, 0.0241 µM. Besides, the TGI is 20 µM with BT-549 breast; 16 µM with SR leukemia; 0.198 µM in the assay on SF-268 CNS; more than 91.4 µM in the assay on HCT-15 colon; 0.276 µM in the assay on RXF 393 renal; more than 100 µM in the assay with ACHN renal. Moreover, the TGI is more than 88.6 µM with MDA-MB-435, more than 60.4 µM with MDA-MB-231 breast, more than 100 µM in the assay on NCI-H226 lung and 0.132 µM with UO-31 renal.

Regarding `NC(=O)C1c2ccccc2C=Cc2ccccc21`, the GI50 with BT-549 breast, with SR leukemia, with SF-268 CNS, in the assay with HCT-15 colon, in the assay on RXF 393 renal and in the assay with ACHN renal was more than 100 µM in each case. Also, the GI50 was 73.3 µM in the assay with MDA-MB-435, more than 100 µM in the assay with MDA-MB-231 breast, more than 100 µM with NCI-H226 lung and more than 100 µM in the assay with UO-31 renal. Moreover, the TGI with BT-549 breast, in the assay with SR leukemia, with SF-268 CNS, with HCT-15 colon, in the assay on RXF 393 renal and with ACHN renal was more than 100 µM in each case. Moreover, the TGI in the assay on MDA-MB-435, in the assay with MDA-MB-231 breast, with NCI-H226 lung and in the assay on UO-31 renal was more than 100 µM each time.

In the case of `CNC(=O)c1c(NC(=O)c2ccc(C(F)(F)F)cc2)sc2c1CCC(=O)C2`, the GI50 with BT-549 breast was 0.366 µM; in the assay with SR leukemia it was 0.356 µM; in the assay with SF-268 CNS, 0.995 µM; with HCT-15 colon, 0.239 µM; in the assay with RXF 393 renal, 0.41 µM; in the assay on ACHN renal, 0.322 µM. Moreover, the GI50 in the assay on MDA-MB-435 is 0.818 µM; in the assay on MDA-MB-231 breast it was 0.529 µM; in the assay with NCI-H226 lung it was 1.82 µM; in the assay on UO-31 renal, 0.302 µM. Moreover, the TGI was 3.72 µM with BT-549 breast; more than 100 µM in the assay with SR leukemia; more than 37.9 µM with SF-268 CNS; 1.76 µM with HCT-15 colon; 2.15 µM in the assay with RXF 393 renal; 1.9 µM with ACHN renal. Besides, the TGI with MDA-MB-435 was 3.55 µM; in the assay with MDA-MB-231 breast, 2.51 µM; in the assay on NCI-H226 lung, 5.35 µM; in the assay with UO-31 renal, 1.4 µM.

For `C=C(C)[C@@H]1CC[C@]2(C(N)=O)CC[C@]3(C)[C@H](CC[C@@H]4[C@@]5(C)CC[C@H](O)C(C)(C)[C@@H]5CC[C@]43C)[C@@H]12`, the GI50 was 3.99 µM with BT-549 breast; 4.14 µM with SR leukemia; 4.34 µM in the assay with SF-268 CNS; 3.28 µM with HCT-15 colon; 2.1 µM in the assay on RXF 393 renal; 2.44 µM in the assay with ACHN renal. Besides, the GI50 was 8.65 µM in the assay with MDA-MB-435, 1.97 µM in the assay on MDA-MB-231 breast, 4.1 µM in the assay with NCI-H226 lung and 1.72 µM with UO-31 renal. The TGI in the assay on BT-549 breast was 19.7 µM; in the assay on SR leukemia it was 23.5 µM; in the assay on SF-268 CNS, more than 100 µM; with HCT-15 colon, 12.3 µM; in the assay on RXF 393 renal, 5.39 µM; with ACHN renal it was 6.82 µM. The TGI in the assay with MDA-MB-435 was more than 100 µM; with MDA-MB-231 breast it was 4.6 µM; with NCI-H226 lung it was 17.8 µM; with UO-31 renal, 3.34 µM.
